Measured values reported in the OPERA property sets (Mansouri et al. 2018).

Details: for log10 BCF / log10 biotransformation half-life (days): fish

Compound	melting point [°C]	boiling point [°C]	other results
O=C(O)C1(O)c2ccccc2-c2ccc(Cl)cc21 (stereo not drawn)	152	–	–
Cc1cc(N)n(-c2ccccc2)n1	116	333	–
CCOC(=O)C(C)Oc1ccc(Oc2nc3ccc(Cl)cc3o2)cc1 (stereo not drawn)	86.2	–	log10 Koc (L/kg): 3.98
CCCCCCCCCCCCCCCC[N+](C)(C)CC.[Br-]	182	–	–
COc1cccc2c1C(=O)c1c(O)c3c(c(O)c1C2=O)C[C@@](O)(C(C)=O)C[C@@H]3O[C@H]1C[C@H](N)[C@H](O)[C@H](C)O1	208	–	–
CCCCCCCC(=O)CCC	4.5	–	–
CN(C)CCN(C)CCN(C)C	–	–	ready biodegradability: not readily biodegradable
c1ccc2cc3c(ccc4cc5ccccc5cc43)cc2c1	257	–	–
CC1=CC(=O)CCC1(C)C	–	217	–
CCCCC(O)(CCCC)CCCC	20	–	–
O=C(O)[C@@H]1CCCN1C(=O)OCc1ccccc1	77	–	–
C[Si](C)(C)O[Si](C)(C)O[Si](C)(C)C	-80	153	log10 Henry constant (atm·m³/mol): 1.49; log10 vapour pressure (mmHg): 0.524
FC(F)(F)CBr	-93.9	26	–
COc1ccc2[nH]cc(CCN)c2c1	122	–	–
CC(=O)Oc1ccc(Cl)cc1Cl	–	244	–
CC(C)(C)[C@@H](O)[C@@H](Cc1ccc(Cl)cc1)n1cncn1 (single isomer, unassigned)	166	–	log10 Koc (L/kg): 2.7; log10 vapour pressure (mmHg): -8.12
O=C(Nc1ccccc1)Nc1cnns1	–	–	log10 Koc (L/kg): 2.04; log10 vapour pressure (mmHg): -10.6
O=C(O)c1cccc(S(=O)(=O)O)c1	–	–	ready biodegradability: not readily biodegradable
Cc1ccc(C)c(Br)c1	9	199	–
CCCOC(=O)Nc1ccccc1	–	–	log10 Koc (L/kg): 2.06
O=[N+]([O-])c1cccc(Cl)c1Cl	61.5	258	ready biodegradability: not readily biodegradable; log10 BCF: 2.16; log10 biotransformation half-life (days): 0.54
O=P(OC(CCl)CCl)(OC(CCl)CCl)OC(CCl)CCl	27	–	ready biodegradability: not readily biodegradable; log10 BCF: 1.08; log10 biotransformation half-life (days): -0.52
O=P(O)(Oc1ccccc1)Oc1ccccc1	67.5	–	–

Compound	melting point [°C]	boiling point [°C]	other results
O=C(Nc1ccccc1)N(Cc1ccc(Cl)cc1)C1CCCC1	130	–	log10 Henry constant (atm·m³/mol): -11.3; log10 vapour pressure (mmHg): -11.4
Cc1cc(C)c(C(C)C)cc1C	21	221	–
CCC(C)=NO	-29.5	152	ready biodegradability: not readily biodegradable; log10 BCF: 0.7; log10 biotransformation half-life (days): -1.33
Oc1ccccc1S	5.5	217	–
CCCC(C)(COC(N)=O)COC(=O)NC(C)C (stereo not drawn)	92	–	–
CC(C)OC(=O)C1(S(=O)(=O)c2ccc([N+](=O)[O-])cc2)CC1	123	–	–
COc1ccccc1C=O	37.5	244	–
FC(F)(F)CI	–	54.5	–
CSC(=O)c1cccc2nnsc12	133	267	log10 vapour pressure (mmHg): -5.48
CCS(=O)(=O)c1nc2ccccn2c1S(=O)(=O)NC(=O)Nc1nc(OC)cc(OC)n1	201	–	–
O=C1c2ccccc2C(=O)C1c1ccccc1	150	–	–
CC(C)NCCCC1(C(N)=O)c2ccccc2-c2ccccc21	94.5	–	–
CC1(C)C2CC3OC3(C)C1C2 (stereo not drawn)	–	185	log10 vapour pressure (mmHg): -0.0872
Cc1c(Cl)cc(Cl)c(O)c1Cl	46	265	–
O=Cc1c(F)c(F)c(F)c(F)c1F	20	167	–
Nc1c([N+](=O)[O-])cc(Cl)cc1[N+](=O)[O-]	147	–	–
CCCC/C=C\CCCCCCCCCC=O	–	250	–
CCCCCC(CO)CCC (stereo not drawn)	–	218	–
CC1=C(C)C(=O)c2ccccc2C1=O	127	–	–
CCCCSP(SCCCC)SCCCC	100	–	–
C[C@]1(O)CC[C@H]2[C@@H]3CCC4=CC(=O)CC[C@]4(C)[C@@]3(F)[C@@H](O)C[C@@]21C	270	–	–
O=C(O)C(Cc1ccccc1)C(=O)O	121	–	–
CCC(C)c1ccc(O)c([N+](=O)[O-])c1 (stereo not drawn)	–	–	log10 Henry constant (atm·m³/mol): -4.02; log10 vapour pressure (mmHg): -2.34

Compound	melting point [°C]	boiling point [°C]	other results
Ic1ccc(I)s1	41.5	–	–
C1CCC(NC2CCCCC2)CC1	-0.1	256	log10 vapour pressure (mmHg): -1.47; ready biodegradability: readily biodegradable
Nc1cc([N+](=O)[O-])ccc1Cl	121	–	–
CCC(C)Nc1ccc(NC(C)CC)cc1 (stereo not drawn)	18	–	–
Clc1ccc(-c2c(Cl)cc(Cl)c(Cl)c2Cl)cc1Cl	107	–	log10 biotransformation half-life (days): 2.57
COc1ccccc1OC	22.5	206	log10 Koc (L/kg): 2.03; log10 vapour pressure (mmHg): -0.328; ready biodegradability: readily biodegradable
Cc1cc(O)c([N+](=O)[O-])cc1Cl	133	–	log10 vapour pressure (mmHg): -3.07
Cc1[nH]ncc1Br	76.5	–	–
Cc1cc2c(cc1O)[C@@]1(C)CCCC(C)(C)[C@@H]1CC2=O	250	–	–
Clc1cc(Cl)c2c(oc3c(Cl)cccc32)c1Cl	177	–	–
Nc1ccc(F)cc1F	-7.5	170	–
CNC(=S)S	–	–	ready biodegradability: not readily biodegradable
CC(C)(C)c1ccc(Cl)cc1	–	213	–
COc1ccc(C(=O)CC(=O)c2ccc(C(C)(C)C)cc2)cc1	83.5	–	–
CC(=O)OCC(=O)[C@H]1CC[C@H]2[C@@H]3CCC4=CC(=O)CC[C@]4(C)[C@H]3CC[C@]12C	157	–	–
CCC(C)C(C)O (stereo not drawn)	–	134	–
N#CCCCCCC#N	-31.4	–	–
O=c1n(CCCN2CCN(c3cccc(Cl)c3)CC2)nc2ccccn12	87	–	–
Brc1cccc(-c2ccccc2)c1	–	300	–
CCC(CC)C(C)C	-115	116	log10 biodegradation half-life (days): 0.778; log10 vapour pressure (mmHg): 1.38
[O-][n+]1onc2ccccc21	70	–	–
O=[N+]([O-])OCC(CO[N+](=O)[O-])O[N+](=O)[O-]	13.5	250	log10 vapour pressure (mmHg): -3.4
C=C(Cl)C(=C)Cl	–	98	–

Compound	melting point [°C]	boiling point [°C]	other results
ClC(Cl)=C(Cl)C(Cl)(Cl)Cl	-72.9	210	log10 vapour pressure (mmHg): -0.613
Fc1cc(F)nc(F)n1	–	98	–
O=S(=O)(O)c1ccc(O)cc1	–	–	ready biodegradability: readily biodegradable
CC(C)(C)C(=O)CCl	-13	172	–
Cc1c2ccccc2c(C)c2ccccc12	183	–	–
CNC(=O)Oc1ccc2c(c1)[C@]1(C)CCO[C@@H]1N2C	124	–	–
CCCCC(C(N)=O)n1nnc2ccccc21 (stereo not drawn)	118	–	–
CC(C)C(C)C(C)(C)C (stereo not drawn)	-121	133	log10 vapour pressure (mmHg): 1.1
CCNCC.Cl	228	–	–
CCCCCCCCCCCC(=O)OC(=O)CCCCCCCCCCC	41.8	–	–
CC=Cc1ccccc1	-28.2	177	–
CCC(C)CC(CC)CC (stereo not drawn)	–	158	–
CC(=O)[O-].[Na+]	324	–	–
COc1ccc(OC)c([N+](=O)[O-])c1	72.5	–	–
CCCC(=O)Nc1c(I)cc(I)c(CC(CC)C(=O)[O-])c1I.[Na+] (stereo not drawn)	209	–	–
C=CCN1CC[C@]23CCCC[C@H]2[C@H]1Cc1ccc(O)cc13	181	–	–
Oc1ccc(C2(c3ccc(O)cc3)CCCCC2)cc1	–	–	ready biodegradability: not readily biodegradable
CCC=CCCO	–	156	–
Clc1ccc2c(Cl)ccc(Cl)c2c1Cl	–	–	log10 Koa: 8.4
CCCCCN(CCCCC)CCCCC	–	242	–
O=Cc1ccoc1	–	145	–
